The values below are quoted from earlier work in US20030109682A1, “Maytansines and maytansine conjugates” (priority 2001, published 2003).

Data set [1] deals with acute lymphocytic leukemia, breast carcinoma, ovarian cancer, thymoma, melanoma, and non-small scale lung cancer. The settings on record: Phase I, patients with acute lymphocytic leukemia.
The conditions of data set [2]: Phase II trials.

`COc1cc2cc(c1Cl)N(C)C(=O)C[C@H](OC(=O)[C@H](C)N(C)C(C)=O)[C@]1(C)O[C@H]1[C@H](C)[C@@H]1C[C@@](O)(NC(=O)O1)[C@H](OC)/C=C/C=C(\C)C2` [Maytansine]: the clinical response result in data set [1] was “encouraging responses”. Moreover, in data set [2], the gastrointestinal toxicity entry is “manageable gastrointentinal toxicity” and the “neurotoxicity at the site of administration” value was “pain of such magnitude as to prevent further administration”.
